“Also recorded” adds a separate entry of the source. Counter-ions that a name gives are not always drawn. Like-named read-outs stand apart in the source and are kept apart here. Some results are limits rather than exact numbers.

We go through eight molecules from patent publication US9945845B2, “Methods of screening using amphibians” (priority 2009, dated 2018).

The test system of data set [1] is LEC. As to the kind of experiment: cells. It counts as cell-based, human. The note with it: for activity at 1 µM: Homo sapiens. In outline: (§1)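 HUVEC and LEC in EBM with 20% FBS, hydrocortisone and dibutyryl-cAMP, up to eleven passages, treated overnight at 37 °C with compound at 1 μM in 0.1% DMSO, then fixed in 4% paraformaldehyde. Read-out: total tube length (μm) per area over three hotspot images per well, triplicate wells.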

The next data set has as its system Xenopus embryos. Particulars: for Lethality: — = no stage of lethality given; for Onset (NF): onset of edema; for scored in the phenotypic Xenopus screens: known antiangiogenic compounds; for Type of edema Periocular: * = causing bulging eyes, # = bilateral, causing narrow-set eyes; for Type of edema Ventral: ‡ = edemas also detected in the gut. In outline: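 Stage 31 (37 hpf) Xenopus embryos, five per well, exposed to 20 µM compound in 1% DMSO at 23 °C for 4 days. Edema, lethality and other external phenotypes were scored daily by two investigators at stages 39, 41, 45 and 47.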

Data set [2] concerns LEC. As to the kind of experiment: LEC cell proliferation assay. It counts as cell-based, human. Particulars: for activity at 10 µM: Homo sapiens, 48 h. In outline: (§2)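 HUVEC and LEC in EBM with 20% FBS, hydrocortisone and dibutyryl-cAMP were treated with compound at 10 μM in 0.1% DMSO for 48 hours. Viable cells read by fluorescence, in five replicates.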
Data set [3] deals with HUVEC. As to the kind of experiment: HUVEC cell proliferation assay. It counts as cell-based, human. Particulars: for activity at 10 µM: Homo sapiens, HUVEC, 48 h. In outline:
as §2

For data set [4], the system named is HUVEC. In words: HUVEC tube formation assay. It counts as cell-based, human. Particulars: for activity at 1 µM: Homo sapiens, HUVEC. In outline: as §1
For data set [5], the system named is blood vessel development and/or lymphangiogenesis in Xenopus embryos. It counts as in vivo, Xenopus laevis. The note with it: for lymph vessel development phenotype (vegfr3 expression, in words): 20 μM from stage 31, fixed at stage 42; for ALH phenotype: anterior lymph heart; for ALS phenotype: anterior lymph sac; for PLV phenotype: posterior lymph vessels. In a few lines: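 Albino Xenopus embryos treated at 20 μM final (from 10-mM DMSO stocks) in screening medium, 7 per well, from stage 31 (37 hpf) to stage 35/36 (50 hpf) or 42 (80 hpf). Fixed in 4% paraformaldehyde and scored by whole-mount in situ hybridization: vasculogenesis and intersomitic vein angiogenesis at stage 35/36, lymph vessel development at stage 42.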

In data set [6] the test system is transgenic zebrafish expressing a fluorescent vascular reporter gene. The note with it: Tran et al., 2007, cited from earlier work; for penetration of embryos: highly hydrophilic compounds.
Setting [7] is: compounds causing edema, 20 μM, 1% DMSO, treatment from stage 31, scored to stage 47.
[8] abbreviates: 20 μM, 1% DMSO, treatment from stage 31, Nieuwkoop & Faber stage.
The mark [9] stands for this setting: intersomitic vessels, Xenopus embryos.
[10] abbreviates: posterior cardinal vein, Xenopus embryos.
Where [11] appears, read: vitelline vein network, Xenopus embryos.
The mark [12] stands for this setting: 1 μM in 0.1% DMSO, overnight, read-out: LEC tube formation.
Setting [13] is: 10 μM in 0.1% DMSO, 48 hours, read-out: LEC proliferation.
Where [14] appears, read: 10 μM in 0.1% DMSO, 48 hours, read-out: HUVEC proliferation.
Setting [15] is: 1 μM in 0.1% DMSO, overnight, read-out: HUVEC tube formation.

In the case of `COc1cc([C@@H]2c3cc4c(cc3[C@H](O)[C@H]3COC(=O)[C@H]23)OCO4)cc(OC)c1OC` [Podophyllotoxin], the activity at 1 µM is less than 50% in the data set with LEC [1] (read-out: LEC tube formation), less than 35% with LEC [1] (read-out: LEC tube formation (tube length)), less than 50% in the data set on HUVEC [4] (read-out: HUVEC tube formation) and less than 35% with HUVEC [4] (read-out: HUVEC tube formation (tube length)). Also, in the data set on Xenopus embryos (setting [7]), the “Lethality (NF)” value is listed as 41/42. For the same molecule, the “Type of edema Pericordial” value in the data set on Xenopus embryos (embryonic stage) is recorded as 39/40. The Lethality in the data set with Xenopus embryos (embryonic stage) is 41/42. Further, in the data set with Xenopus embryos (setting [8]), the “Onset (NF)” value was 39/40. In addition, the activity at 10 µM with LEC [2] (read-out: LEC proliferation, 10 μM in 0.1% DMSO, 48 hours) was in the range of 65 to 82%; in the data set with HUVEC [3] (read-out: HUVEC proliferation, 10 μM in 0.1% DMSO, 48 hours), 65 to 82%. In addition, in data set [5] (setting [9]), the ISV phenotype result is recorded as “impaired”. Besides, in data set [5] (setting [10]), the PCV phenotype entry was “hypoplastic”. In addition, the VVN phenotype result in data set [5] (setting [11]) was “hypoplastic”.

With `CN(C)c1ccc(C=C2C(=O)Nc3ccccc32)cc1` [SU 4312, 3-(4-Dimethylaminobenzylidenyl)-2-indolinone], the LEC tube formation entry in the data set on LEC [1] (1 μM in 0.1% DMSO, overnight) was “O (O, inactive or marginal effects (85-115% of control);)”. Further, the “scored in the phenotypic Xenopus screens” value in the data set with Xenopus embryos (20 μM) is “active”. The Embr. phen. result in the data set with Xenopus embryos (embryonic phenotype in the primary screen) is recorded as “EDE”. Further, in the data set on Xenopus embryos (embryonic stage), the “Type of edema Pronephric” value was 45 embryonic stages according to Nieuwkoop and Faber (NF); the “Type of edema Periocular” value was 45 embryonic stages according to Nieuwkoop and Faber (NF); the “Type of edema Ventral” value is 45 embryonic stages according to Nieuwkoop and Faber (NF). The “Onset (NF)” value in the data set on Xenopus embryos (setting [8]) is recorded as 45 NF. Also, the LEC proliferation result in the data set with LEC [2] (10 μM in 0.1% DMSO, 48 hours) was “O (O, inactive or marginal effects (85-115% of control);)”. In addition, in data set [6], the “recovery as antiangiogenic compound in the transgenic zebrafish screen” value is listed as “recovery”. Also, the “antiangiogenic effects in zebrafish” value in data set [6] (at higher concentrations (>30 μM)) was “moderate antiangiogenic effects”. Further, in the data set on HUVEC [4] (1 μM in 0.1% DMSO, overnight), the HUVEC tube formation result is “O (O, inactive or marginal effects (85-115% of control);)”. The “blood vessel development phenotype (apj expression, in words)” value in data set [5] (20 μM from stage 31, fixed at stage 35/36) is reported as “largely unaffected; also recorded: normal angiogenic ISV outgrowth”. In addition, the “lymph vessel development phenotype (vegfr3 expression, in words)” value in data set [5] is given as “inhibiting preferentially lymphatic vascular development; also recorded: lymphangiogenesis was largely suppressed; also recorded: robustly blocks lymphangiogenesis”. In addition, in data set [5] (Xenopus embryos), the Blood vessel phenotype result was “normal”, the ALH phenotype entry is “impaired”, the ALS phenotype result is on record as “impaired” and the PLV phenotype result is “hypoplastic”.

`Cc1cc(C)c(C=C2C(=O)Nc3ccccc32)[nH]1` [SU 5416, 1,3-Dihydro-3-[(3,5-dimethyl-1H-pyrrol-2-yl)methylene]-2H-indol-2-one]: the “effect on LEC tube formation (in words)” value in the data set with LEC [1] (1 μM in 0.1% DMSO) is “preferentially blocked tube formation in LEC rather than HUVEC cultures”. Moreover, the activity at 1 µM with LEC [1] (setting [12]) lay within 50 to 85%. In addition, the “edema or other phenotype in compound-treated Xenopus embryos/tadpoles (in words)” value in the data set with Xenopus embryos (20 μM, 1% DMSO, treatment from stage 31) was “causing lethality”. The “scored in the phenotypic Xenopus screens” value with Xenopus embryos (20 μM) was “active”. For the same molecule, in the data set on Xenopus embryos (compounds causing lethality, 20 μM, 1% DMSO, treatment from stage 31, Nieuwkoop & Faber stage), the “Lethality (NF)” value is 37/38. In addition, the activity at 10 µM in the data set on LEC [2] (setting [13]) was in the range of 85 to 115%. Besides, the activity at 10 µM with HUVEC [3] (setting [14]) fell in the range of 85 to 115%. For the same molecule, the activity at 1 µM in the data set with HUVEC [4] (setting [15]) lay in the range of 85 to 115%. For the same molecule, in data set [5] (in vivo), the ISV phenotype entry is on record as “impaired”; the PCV phenotype result was “normal”; the VVN phenotype entry is “hypoplastic”; the “blood vessel development phenotype (apj expression, in words)” value was “block ISV outgrowth”.

In the case of `CC(C)COC(=O)OCN1C(=O)CN(CCN2CC(=O)N(COC(=O)OCC(C)C)C(=O)C2)CC1=O` [Sobuzoxane, 4,4′-(1,2-Ethanediyl)bis(1-isobutoxycarbonyloxymethyl-2,6-piperazinedione)], the activity at 1 µM in the data set on LEC [1] (setting [12]) was 85 to 115%. The activity at 1 µM with LEC [1] (1 μM in 0.1% DMSO, read-out: LEC tube formation (tube length)) fell in the range of 85 to 115%. Further, the “Lethality (NF)” value with Xenopus embryos (setting [7]) turned out to be 47 NF. Further, in the data set with Xenopus embryos (embryonic stage), the “Type of edema Proctodeal” value was 45 embryonic stages according to Nieuwkoop and Faber (NF); the “Type of edema Pronephric” value is given as 41/42; the “Type of edema Periocular” value was 45* embryonic stages according to Nieuwkoop and Faber (NF); the Lethality was 47 embryonic stages according to Nieuwkoop and Faber (NF). Moreover, the “Type of edema Ventral” value in the data set on Xenopus embryos (embryonic stage) is 45 embryonic stages according to Nieuwkoop and Faber (NF). Moreover, the “Onset (NF)” value with Xenopus embryos (setting [8]) is on record as 41/42. Moreover, the LEC proliferation entry in the data set on LEC [2] (10 μM in 0.1% DMSO, 48 hours) is “+ (+, moderate promotion (>115-150% of control).)”. Moreover, in the data set with LEC [2] (setting [13]), the activity at 10 µM was in the range of 115 to 150%. The HUVEC proliferation result in the data set on HUVEC [3] (10 μM in 0.1% DMSO, 48 hours) is “+ (+, moderate promotion (>115-150% of control).)”. In the data set on HUVEC [3] (setting [14]), the activity at 10 µM is 115 to 150%. For the same molecule, the activity at 1 µM in the data set with HUVEC [4] (setting [15]) lay within 85 to 115%. Further, in the data set on HUVEC [4] (1 μM in 0.1% DMSO, read-out: HUVEC tube formation (tube length)), the activity at 1 µM was 85 to 115%. For the same molecule, in data set [5], the “lymph vessel development phenotype (vegfr3 expression, in words)” value is given as “discontinuatous, dysplastic lymphatic vessels”. Besides, in data set [5] (Xenopus embryos), the Blood vessel phenotype entry is “normal”, the ALH phenotype entry is “dysplastic”, the ALS phenotype result is recorded as “dysplastic” and the PLV phenotype entry was “hypoplastic”.

On to `N#CC(=Cc1ccc(O)c(O)c1)C(=O)Nc1ccccc1` [Tyrphostin AG 494, N-Phenyl-3,4-dihydroxybenzylidenecyanoacetamide], for which the “effect on LEC tube formation (in words)” value in the data set on LEC [1] (1 μM in 0.1% DMSO) was “preferentially blocked tube formation in LEC rather than HUVEC cultures”. The activity at 1 µM in the data set with LEC [1] (setting [12]) lay in the range of 50 to 85%; in the data set with HUVEC [4] (setting [15]), 85 to 115%. In addition, the “Lethality (NF)” value in the data set with Xenopus embryos (setting [7]) was determined as 40 NF. Also, in the data set on Xenopus embryos (embryonic stage), the “Type of edema Pericordial” value was 39 embryonic stages according to Nieuwkoop and Faber (NF). Besides, the Lethality in the data set with Xenopus embryos (embryonic stage) is 40 embryonic stages according to Nieuwkoop and Faber (NF). In addition, the activity at 10 µM in the data set on LEC [2] (setting [13]) and in the data set on HUVEC [3] (setting [14]) was 85 to 115% in each case. For the same molecule, the ISV phenotype entry in data set [5] (setting [9]) is recorded as “impaired”. Also, in data set [5] (setting [10]), the PCV phenotype result is “hypoplastic”. Moreover, the VVN phenotype result in data set [5] (setting [11]) was “hypoplastic”.

In the case of `COc1cc2ncnc(Nc3cccc(Cl)c3)c2cc1OC` [Tyrphostin AG 1478, N-(3-Chlorophenyl)-6,7-dimethoxy-4-quinazolinamine], the “scored in the phenotypic Xenopus screens” value with Xenopus embryos (20 μM) is on record as “active”. The “Lethality (NF)” value in the data set on Xenopus embryos (setting [7]) stood at 46 NF. Moreover, in the data set with Xenopus embryos (embryonic stage), the “Type of edema Periocular” value was 45 embryonic stages according to Nieuwkoop and Faber (NF); the Lethality is 46 embryonic stages according to Nieuwkoop and Faber (NF); the “Type of edema Ventral” value was 45 embryonic stages according to Nieuwkoop and Faber (NF). The Cardiac phenotype in the data set with Xenopus embryos (embryonic stage, ¶ = the heart chambers were enlarged) was 45¶ embryonic stages according to Nieuwkoop and Faber (NF). Besides, the “recovery as antiangiogenic compound in the transgenic zebrafish screen” value in data set [6] is “recovery”.

Regarding `CN(C)c1ccc(O)c2c1C[C@H]1C[C@H]3[C@H](N(C)C)C(O)=C(C(N)=O)C(=O)[C@@]3(O)C(O)=C1C2=O` [minocycline hydrochloride], the penetration of embryos result in data set [6] is “poorly penetrate embryos”.

Take `O=C1CCC(N2C(=O)c3ccccc3C2=O)C(=O)N1` (stereo not shown) [thalidomide]: the penetration of embryos entry in data set [6] is on record as “poorly penetrate embryos”.
